# Measured values: patent publication US6461664B1, “Chelated feed additive and method of preparation” (Agristudio S. r. L., priority 1999, dated 2002)
# Assay: solubility in water of the dried chelate
# Assay type: physicochemical
# Conditions: ambient temperature, white powder
# Experimental: In the case described, the dried chelate is in the form of a white powder, with a melting point of about 248° C. and a solubility in water of about 20 g/l at ambient temperature.
substance,measurement,value
(CH3SCH2CH2CHOHCO)2Zn [Example 1],solubility in water,about 20 g/l
